Assay: Storage stability of the product at 40° ± 2° C. for 90 days (drop in assay)
Type: physicochemical
Conditions: for Storage Stability: assay after storage: after 90 days at 40° ± 2° C.; for Storage Stability: assay at start: before storage at 40° ± 2° C.; for storage stability (statement in words): product obtained by the process of the invention

Row | Structure (SMILES) | Storage Stability (90 days at 40° ± 2° C.) | Storage Stability: assay after storage [%] | Storage Stability: assay at start [%] | storage stability (statement in words)
1 | CO/N=C(\C(=O)N[C@@H]1C(=O)N2C(C(=O)O)=C(CSC(=O)c3ccco3)CS[C@H]12)c1csc(N)n1 [ceftiofur (Ia)] | Stable for 90 days at 40° ± 2 °C with a | 92 | 97 | high storage stability
2 | CO/N=C(\C(=O)N[C@@H]1C(=O)N2C(C(=O)[O-])=C(CSC(=O)c3ccco3)CS[C@H]12)c1csc(N)n1.[Na+] [ceftiofur sodium (Ib)] |  | 87 | 94 | high storage stability

Source: patent publication US20040132996A1, “Method for preparation of ceftiofur and salts thereof” (LUPIN LIMITED, priority 2002, published 2004)
